Holding throughout (test): TLR expression in primary human microglia after stimulation, semi-quantitative RT-PCR
Format in all cases: cell-based
Holding throughout (conditions): aggregated peptide 5 µM, 6 h or 24 h

One assay relates to TLR2. The protocol:
(§1) Primary human microglia, oligodendrocytes and astrocytes used in this study were isolated from the human white matter samples obtained from the patients listed in Table 1, as previously described (Bajramovic et al., 2000a and 2000b; De Groot et al., 2000). Briefly, brain tissues dissected from corpus callosum or subcortical white matter were collected and blood vessels were removed. After a 20-min digestion in 0.25 % (w/v) trypsine (Sigma, St. Louis, MO) and 0.1 mg/ml DNAse (Boehringer Mannheim, Mannheim, Germany) the cell suspension was gently triturated and washed with DMEM/HAM-F10 medium containing 10 % (v/v) FCS and antibiotic supplements. After passage through a 100-µm filter, myelin was removed by Percoll gradient centrifugation. Erythrocytes were lysed by a 15-min incubation on ice with 155 mM NH4Cl, 1 mM KHCO3, 0.2 % (w/v) BSA.
(§2) Primary cultures of microglia, astrocytes and oligodendrocytes were set up in DMEM/HAM-F10 medium containing 10 % (v/v) FCS and antibiotic supplements. Recombinant human granulocyte-macrophage colony stimulating factor (rhGM-CSF, PeproTech Inc, USA) was added to microglial cultures every 3 days at a final concentration of […]. Cells were analyzed for TLR expression after 10-14 days following the start of the culture.
(§3) Total cellular RNA was isolated from human glia cells using RNAZol™B (Campro scientific, Veenendaal, The Netherlands) and 2.5 µg RNA was reverse transcribed, using reverse transcription system (Promega, Madison, USA). PCR amplifications were performed on 1 µl copy DNA and 49 µl PCR mix (40 µl milliQ + 5 µl MgCl2 (see below for concentration) + 1 µl 10 mM dNTP mix + 1 µl 20 pmol/µl primer + 1 µl 20 pmol/µl anti sense primer and 0.2 µl taq polymerase). For β-actin, TLR1, TLR2, TLR3, TLR5, TLR6, TLR7 and TLR 9, 22 mM MgCl2 was used, for TLR4, 15 mM MgCl2 and for TLR8, 30 mM MgCl2. Amounts of TLR-encoding mRNA for each TLR were calculated by comparing the yield of each amplicon after 40 cycles to that for β-actin, and by determining the amounts of β-actin encoding mRNA in each sample by competitive quantitative RT-PCR as described previously (Bajramovic et al., 2000a; Bajramovic et al., 2000b).
(§4) Amyloid-β-protein-derived peptide 1-42 (Bachem, Bubendorf, Switzerland) was dissolved in water at 1 mM and kept at 37°C for 1 week to allow for aggregation to occur. The aggregated peptide was added to cultured microglia at a final concentration of 5 µM and TLR expression was determined as described above after varying periods of incubation time. As another CNS-derived stimulant, human recombinant alpha B-crystallin (prepared by TNO Prevention and Health, Leiden) was used at a final concentration of 15 µg/mL.

The next assay deals with other TLR. How it is done:
as §1, §2, §3, §4

The test system of another assay is TLR3. How it is done: as §1, §2, §3, §4
Where [1] appears, read: listed as Amyloid β protein-derived peptide 1-42.
Setting [2] is: listed as amyloid β-protein derived peptide 1-42.

As to “amyloid β protein-derived peptide 1-42: Amyloid-β-protein-derived peptide 1-42 (Bachem), dissolved in water at 1 mM and kept at 37°C for 1 week to allow aggregation”, the “levels of TLR2-encoding mRNA” value is on record as “rapid mild inductive effect” in the assay on TLR2, “elevated expression” in the assay with TLR2 (setting [1]) and “strong effects” in the assay with TLR2 (setting [2]). Besides, the figures for the “expression of mRNA encoding other TLR” value with other TLR and with other TLR (setting [1]) were “not influenced” and “not affecting”, respectively. For the same substance, the “levels of TLR3-encoding mRNA” value in the assay on TLR3 is “stronger inductive effects”; in the assay on TLR3 (setting [1]) it was “elevated expression”; in the assay on TLR3 (setting [2]), “strong effects”.

The record behind these values is patent EP1288226A1, “Modification of the expression levels of Toll-like receptor familiy members for influencing neurodegeneration and neuroprotection in the human central nervous system” (NEDERLANDSE ORGANISATIE VOOR …, priority 2001, dated 2003).
